Test results as given in publication PMC12655172, “Borylated 5-Membered Ring Iminosugars: Synthesis and Biological Evaluation for Glycosidase Inhibition and Anticancer Properties for Application in Boron Neutron Capture Therapy (BNCT)—Part 2” (Pharmaceuticals, 2025).
Where two headings read alike, the source gives them in different places.

Assays:
[1] = system: T1, α-L-fucosidase (bovine kidney); test: Glycosidase inhibition (Table 2 panel); type: biochemical
T1 construct: purchased Sigma-Aldrich; host or cells: bovine kidney
How it was run: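 pNP-glycoside substrate […], optimum pH per enzyme, […]; quench Na2CO3 […]; A400 for liberated p-nitrophenol.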

[2] = system: T2, amyloglucosidase (A. niger); test: Glycosidase inhibition (Table 2 panel); type: biochemical
T2 construct: purchased Sigma-Aldrich
Description: (§1) The enzymes α-D-glucosidase (yeast), β-D-glucosidases (almond, bovine liver), α-D-galactosidase (coffee beans), β-D-galactosidase (bovine liver), α-D-mannosidase (Jack bean), β-D-mannosidase (snail), α-L-rhamnosidase (P. decumbens), α-L-fucosidase (bovine kidney), trehalase (porcine kidney), β-D-glucuronidases (E. coli, bovine liver), amyloglucosidase (A. niger), para-nitrophenyl glycosides, and various disaccharides were purchased from Sigma-Aldrich Co (St. Louis, MO, USA).
(§2) Brush border membranes were prepared from the rat small intestine according to the method of Kessler et al., and were assayed at pH 6.8 for rat intestinal maltase using maltose. […] The reaction was stopped by heating at 100 °C for 3 min. After centrifugation (600 g; 10 min), the resulting reaction mixture was added to the Glucose CII-test Wako (Wako Pure Chemical Ind., Osaka, Japan). […] Other glycosidase activities were determined using an appropriate para-nitrophenyl glycoside as substrate at the optimum pH of each enzyme. The reaction mixture contained the substrate ([…]) and the appropriate amount of enzyme. The reaction was stopped by the addition of Na2CO3 (400 μM). The released para-nitrophenol was measured spectrometrically at 400 nm. All reactions were run in methanol.

α-D-glucosidase (yeast) [3] = biological target: T3, α-D-glucosidase (yeast) (Saccharomyces cerevisiae, UniProt P53341); test: Glycosidase inhibition (Table 2 panel); type: biochemical; conditions: for inhibition at 100 µM / inhibition at 1000 µM: read-out: inhibition % α-D-Glucosidase Yeast
T3 construct: purchased Sigma-Aldrich
T3 sequence (P53341 whole entry): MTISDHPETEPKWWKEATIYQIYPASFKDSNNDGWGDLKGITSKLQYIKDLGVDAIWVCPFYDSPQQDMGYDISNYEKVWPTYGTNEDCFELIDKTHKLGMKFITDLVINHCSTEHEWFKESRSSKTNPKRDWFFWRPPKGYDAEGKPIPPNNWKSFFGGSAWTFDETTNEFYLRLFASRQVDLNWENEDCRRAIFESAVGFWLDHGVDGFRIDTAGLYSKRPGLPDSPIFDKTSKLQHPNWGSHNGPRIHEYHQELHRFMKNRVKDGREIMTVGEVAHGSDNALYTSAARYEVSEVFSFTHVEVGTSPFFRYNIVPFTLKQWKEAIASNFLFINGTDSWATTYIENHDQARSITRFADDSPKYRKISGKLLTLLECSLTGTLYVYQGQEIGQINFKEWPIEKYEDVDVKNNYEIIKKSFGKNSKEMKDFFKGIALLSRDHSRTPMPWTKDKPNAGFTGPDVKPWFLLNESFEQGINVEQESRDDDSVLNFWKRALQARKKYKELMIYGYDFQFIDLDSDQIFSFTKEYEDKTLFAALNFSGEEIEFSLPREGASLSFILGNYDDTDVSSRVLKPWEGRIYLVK
Description: as §1, §2

[4] = system: T4, β-D-glucuronidase (E. coli); test: Glycosidase inhibition (Table 2 panel); type: biochemical
T4 construct: purchased Sigma-Aldrich
Description: as §1, §2

α-D-glucosidase (yeast) [5] = biological target: T3, α-D-glucosidase (yeast); test: Glycosidase inhibition (Table 3 panel); type: biochemical; conditions: 1 mg/mL aqueous solution, run in water; for inhibition at 1000 µg/mL (stock): read-out: Percentage inhibition α-D-Glucosidase Yeast
Description: All enzymes and para-nitrophenyl substrates were purchased from Sigma. Enzymes were assayed at 27 °C in citric acid (0.1 M)/disodium hydrogen phosphate (0.2 M) buffers at the optimum pH for the enzyme. The incubation mixture consisted of […] of 1 mg/mL aqueous solution of extract and […] of the appropriate 5 μM para-nitrophenyl substrate made up in buffer at the optimum pH for the enzyme. […] Assays were carried out in triplicate, and the values given are means of the three replicates per assay. All reactions were run in water.

β-D-glucosidase (almond) = test: Glycosidase inhibition (Table 3 panel); type: biochemical; conditions: 1 mg/mL aqueous solution; run in water
Description: (§3) All enzymes and para-nitrophenyl substrates were purchased from Sigma. Enzymes were assayed at 27 °C in citric acid (0.1 M)/disodium hydrogen phosphate (0.2 M) buffers at the optimum pH for the enzyme. The incubation mixture consisted of […] of 1 mg/mL aqueous solution of extract and […] of the appropriate […] para-nitrophenyl substrate made up in buffer at the optimum pH for the enzyme. The reactions were stopped by addition of […] 0.4 M glycine (pH 10.4) during the exponential phase of the reaction, which had been determined at the beginning using uninhibited assays in which water replaced the inhibitor. Final absorbances were read at 405 nm using a Versamax microplate reader (Molecular Devices, Wokingham, UK). Assays were carried out in triplicate, and the values given are means of the three replicates per assay. All reactions were run in water.

[6] = system: β-D-glucuronidase (bovine liver); test: Glycosidase inhibition (Table 3 panel); type: biochemical; conditions: 1 mg/mL aqueous solution; run in water
Description: as §3

A431 (skin carcinoma) = test: Cancer screening, MTT growth inhibition; type: cell-based; conditions: for inhibition at 25 µM: A-431, 25 µM of drug, read-out: DOSE SCREEN percentage (%) cell growth inhibition A431 Skin; for GI50: read-out: DOSE RESPONSE GI50 A431 Skin; for DOSE SCREEN percentage (%) cell growth inhibition A431 Skin: 25 µM of drug
How it was run: (§4)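 MTT read-out; […]. Cells in DMEM + 10% FBS, 37 °C/5% CO2, plated 2500–4000 per well, dosed on day 0 (24 h post-plating). Mean ± SEM, n = 3 separate occasions.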

[7] = system: HT29 (colorectal carcinoma); test: Cancer screening, MTT growth inhibition; type: cell-based; conditions: for inhibition at 25 µM: HT-29, 25 µM of drug, read-out: DOSE SCREEN percentage (%) cell growth inhibition HT29 Colon; for GI50: read-out: DOSE RESPONSE GI50 HT29 Colon; for DOSE SCREEN percentage (%) cell growth inhibition HT29 Colon: 25 µM of drug
How it was run: as §4

Compound | inhibition % α-L-Fucosidase Bovine Kidney ([1]; at 1000 μM) | inhibition % Amyloglucosidase A. niger ([2]; at 100 μM) | inhibition % Amyloglucosidase A. niger ([2]; at 1000 μM) | inhibition at 100 µM (α-D-glucosidase (yeast) [3]) | inhibition at 1000 µM (α-D-glucosidase (yeast) [3]) | inhibition % β-D-Glucuronidase E. coli ([4]; at 100 μM) | inhibition % β-D-Glucuronidase E. coli ([4]; at 1000 μM) | inhibition at 1000 µg/mL (stock) (α-D-glucosidase (yeast) [5]) | Percentage inhibition β-D-Glucosidase Almond (β-D-glucosidase (almond)) | Percentage inhibition β-D-Glucuronidase Bovine Liver [6] | inhibition at 25 µM (A431 (skin carcinoma); Homo sapiens, 72 h) | GI50 (A431 (skin carcinoma); Homo sapiens, A-431, 72 h) | inhibition at 25 µM ([7]; Homo sapiens, 72 h) | GI50 ([7]; Homo sapiens, HT-29, 72 h) | inhibition % α-D-Glucosidase Yeast (α-D-glucosidase (yeast) [3]; at 100 μM) | inhibition % α-D-Glucosidase Yeast (α-D-glucosidase (yeast) [3]; at 1000 μM) | Percentage inhibition α-D-Glucosidase Yeast (α-D-glucosidase (yeast) [5]) | DOSE SCREEN percentage (%) cell growth inhibition A431 Skin (A431 (skin carcinoma); 72 h) | DOSE SCREEN percentage (%) cell growth inhibition HT29 Colon ([7]; 72 h) | other results
OB(O)c1cccc(CN2C[C@@H](O)[C@H]3OC(O)[C@H](O)[C@H]32)c1 (stereo partly drawn) [meta 3, N-(3-Methylphenylboronic acid)-3,6-dideoxy-3,6-imino-D-gulofuranose] | ^aNI ^b(3.8%) | ^cNI ^d(24.6%) | ^aNI ^b(1.5%) | 1.4% | 37% | ^cNI ^d(16.2%) | ^aNI ^b(36.9%) | -16.7% | 61.7% | 13.3% | 3% | > 50 µM | < 0% | > 50 µM | – | – | – | – | – | –
CC1(C)O[C@H]2O[C@H]3[C@@H]([C@H]2O1)N(Cc1ccccc1B1OC(C)(C)C(C)(C)O1)C[C@H]3O [ortho 2, N-(2-Methylphenylboronic acid pinacol ester)-3,6-dideoxy-3,6-imino-1,2-O-isopropylidene-α-D-gulofuranose] | ^aNI ^b(7.8%) | ^cNI ^d(0%) | ^aNI ^b(3.2%) | 1% | 0% | ^cNI ^d(4.1%) | ^aNI ^b(5.2%) | -2% | 73.3% | −1.8% | 10 ± 5% | > 50 µM | 7% | > 50 µM | – | – | – | – | – | –
N-(3-Hydroxyphenyl)-1,4-dideoxy-1,4-imino-L-gulitol [meta 7] | ^aNI ^b(2.1%) | ^cNI ^d(5.1%) | ^aNI ^b(2.1%) | – | – | ^cNI ^d(0.5%) | ^aNI ^b(7.5%) | – | 2.9% | −3% | – | – | – | – | ^cNI ^d(3.4%) | ^aNI ^b(4.3%) | 19.5% | 56 ± 6% | 29 ± 1% | GI50 (A431 (skin carcinoma); 72 h): 17 ± 8.5 µM; GI50 ([7]; 72 h): 50 µM
N[C@@H](Cc1ccc(B(O)O)cc1)C(=O)O [^10B-BPA, reference compound] | – | ^cNI ^d(0%) | – | – | – | ^cNI ^d(2.4%) | – | – | 3% | −1% | – | – | – | – | ^cNI ^d(0%) | – | 3.4% | * 4 ± 4% | * 15 ± 4% | inhibition % α-L-Fucosidase Bovine Kidney ([1]; at 100 μM): ^cNI ^d(0%)
Borocaptate sodium [BSH, reference compound] | ^aNI ^b(0%) | – | ^aNI ^b(0%) | – | – | – | ^aNI ^b(6%) | – | 47.3% | 31.6% | – | – | – | – | – | ^aNI ^b(6.9%) | 59% | * <0% | * 3 ± 2% | –
